What was measured:
B16F10 tumors = assay: Myeloid cell and CD3+ T-cell frequencies in excised B16F10 tumors (spectral flow cytometry); format: in vivo, mice; conditions: CBG 2.5 mg/kg or 3704 3.75 mg/kg i.p., tumors day 14
Method: All procedures involving animals were conducted in accordance with the standards approved by the Technion Animal Care and Use Ethics Committee and the studies adhered to the Technion Code for Experimentation on Animals. To induce tumors, B16F10 cells grown to a confluency of ˜75% were resuspended to a concentration of 1×10^6 cells in 200 ul sterile PBS and transplanted subcutaneously into the right flank of 8-10-week-old female WT C57B6/L mice (Envigo, 16.8±0.78 g). After either 24 hours or 3 days, mice were randomly divided into groups and treated as indicated with either a vehicle of Cannabis extract solvent (18:1:1 ratio of DDW+0.9% NaCl, Sigma, Cat #S7653; Cremophor® EL, Cat #238470; Ethanol, Sigma, #Cat 111727), CAN (100 mg/kg), synthetic CBG (2.5 mg/kg) or 3704 (3.75 mg/kg) for 5 days, then 2 days off and again for 4 days. Tumor volume was measured from day 10 to 14 (endpoint) using a vernier caliper and calculated according to the formula […] and all tumors were weighed at the endpoint of the experiments with an analytical scale.
To prepare single-cell suspensions from the tumors, on day 14 the tumors were excised from the mice and placed in Hanks' Balanced Salt solution (HBSS, Sigma; Cat #H6648) containing 20 mg/ml DNase I (Sigma, Cat #D5025), 1 mg/ml collagenase D from Clostridium histolyticum (Sigma-Aldrich, Cat #C5138) and 0.1 mg/ml hyaluronidase (Sigma-Aldrich, Cat #6254). Tumors were mechanically digested using a scalpel and the gentleMACS™M Dissociator (Miltenyi Biotec). The resulting solution was filtered through a 100 μm filter (Alex Red Ltd. Cat #SO SCS1002) and centrifuged for 10 minutes at 400×g. The supernatant was further used for cytokine and chemokine concentration measurements. For the characterization of myeloid cell frequencies in tumors, the cell pellet was further processed as follows: red blood cells were lysed using the red blood lysis buffer (Biological industries, Cat #01-888-1B), which was neutralized by washing with PBS+2% FBS and centrifuging 10 minutes at 400×g. After centrifugation, cells were resuspended in 40% percoll gradient solution (prepared from 100% percoll, Cytiva, #17089101) and then 80% percoll was added on top of the 40% solution without mixing. The cell suspension was centrifuged at room temperature for 30 minutes without acceleration and break at 500×g. Cells were isolated from the interphase between the 40% and 80% percoll solutions and washed with PBS +2% FBS. Finally, cells were stained with extracellular markers for CD3+ T-cells and myeloid cells, and subpopulation frequency was measured by spectral flow cytometry using Cytek® Aurora (Cytek Biosciences). […]

BM-MDSCs = assay: iNOS and Arg-1 expression by BM-MDSC subpopulations (flow cytometry, western blot); format: cell-based, mice
Method: Bone-marrow-derived cells (BMDCs) were isolated from the fibula and tibia bones of healthy female WT C57BL/6 mice (8-12-week-old). Red blood cells were removed by using red blood lysis buffer (Biological industries, Cat #01-888-1B). Remaining cells were counted and 1×10^6 cells were seeded in complete RPMI (Sigma, Cat #R8758) containing 10% FBS (Sigma, Cat #F7524), 1% L-Glutamine (Sartorius, Cat #03-020-1B), 1% Penicillin/[…] (Sartorius, Cat #03-031-1B), 1% MEM-Eagle (Sartorius, Cat #01-340-1B), 2.5% HEPES (Sartorius, Cat #03-025-1B) and 1% sodium pyruvate (Sartorius, Cat #03-042-1B) and supplemented with 20 ng/ml of GM-CSF and IL-6 (R&D systems, 415-ML and 406-ML). Cells were incubated at 37° C. and 5% CO2 for 4 days and then treated with conditioned media, which was the media collected from B16F10 cells treated with either DMSO, CBG, or the high-CBG extract 3704 as indicated.
To differentiate the subpopulation of myeloid cells, BMDCs and myeloid cells from tumors were stained for the extracellular makers Ly6C-BV421 (BioLegend, Clone HK1.4; Cat #128032) or Ly6C-FITC (BioLegend, Cat #128096, Clone HK1.4), Ly6G-APC (BioLegend, Clone 1A8; Cat #127614), Ly6G-BV421 (BioLegend, Cat #127627, clone 1A8), PECy7-F4/80 (BioLegend, Clone BM8 Cat #123113), BV605-CD86 (BioLegend, Clone GL-1, Cat #105037), APC-CD206 (Biolegend, Clone CO68C2, Cat #141708) and BV711-CD45 (BioLegend, Clone 30F11, Cat #103147). Cells from tumors were also stained with PE-CD3+ (BioLegend, Clone 17A2, Cat #100206) to identify the overall T-cell population. To characterize the cells in the subpopulations, cells were fixed and permeabilized with the Intracellular Fixation and Permeabilization Buffer Set (eBioscience Cat #88-8824-00) and stained with FITC-iNOS (Thermo, Clone CXNFT, Cat #53592082) or FITC-Arginase-1 (Thermo, Clone AlexF5, Cat #53-3697-82). These cells were also stained with Fixable viability Dye (FVD)-eflour 780 (Thermo, Cat #65086514) to exclude dead cells.
To analyze the two subpopulations of BM-MDSCs, the cells were stained with Ly6C-BV421 and Ly6G-APC and sorted into MO-MDSC or PMN-MDSC using the BD FACSAria III Cell Sorter instrument (BD Biosciences). Directly after sorting, the two separate subpopulations were co-cultured with CD8+ T-cells or lysed and further analyzed via western blot.
B16F10 cells, and sorted MO-MDSC and PMN-MDSC achieved as described, were lysed in RIPA buffer (Sigma, Cat #R0278) supplemented with Protease/Phosphatase Inhibitor Cocktail (Cell signaling, Cat #5872S) on ice for 20 minutes. Total protein concentrations were measured using the detergent-compatible protein assay (Bio-Rad, Cat #5000113 and 5000114) and equal amounts were loaded onto a 4%-20% gradient gel (Invitrogen, Cat #XPO4202) and semidry transferred into a nitrocellulose membrane (Bio-Rad, Cat #1704159). The membrane was incubated with the primary antibodies CSF-1 (Santa Cruz; Clone D-4; #sc-365779), iNOS (Abcam; Clone #ab15323) or GAPDH (Cell Signaling Technology, Cat #14C10). Secondary antibodies used in this study were HRP-conjugated and the membranes were developed with the ECL detection kit (Millipore, Cat #WBLUR).

[1] = CM of treated B16F10 vs CM of DMSO-treated B16F10, 24 hours, flow cytometry

## CCCCCc1cc(O)c(C/C=C(\C)CCC=C(C)C)c(O)c1 [CBG, cannabigerol]
B16F10 tumors
  CD3 T-cells frequencies in tumors relative to vehicle control: trend of increase in T-cells frequencies
  frequencies of MO-MDSC and PMN-MDSC subpopulations in tumors: did not affect
  frequency of M2 macrophages in tumors relative to vehicle control: trend of a decreased frequency in M2 macrophages
B16F10 tumors; calculated for each mouse
  ratio between M1 and M2 macrophages (M2/M1) relative to vehicle control: trend of decreased ratio
BM-MDSCs; CM from treated B16F10 vs CM of DMSO-treated B16F10, sorted MO-MDSC and PMN-MDSC
  iNOS expression by western blot in sorted subsets: reduction of iNOS expression specifically in MO-MDSCs
BM-MDSCs; [1]
  iNOS expression by MO-MDSC: significantly decreased iNOS expression
  iNOS expression by PMN-MDSC: did not detect a significant decrease in iNOS expression
BM-MDSCs; CM of treated B16F10 vs CM of DMSO-treated B16F10, 24 hours, flow cytometry, neither subpopulation
  Arg-1 expression in MO-MDSCs and PMN-MDSCs: did not detect a significant difference in Arg-1 expression
BM-MDSCs; medium from untreated B16F10 together with 2 g/ml CBG or 6 μg/ml 3704 for 24 hours, vs DMSO
  iNOS expression in directly treated BM-MDSCs (each subpopulation): did not detect any significant differences
